In patent US10106544B2, “1,2-dihydro-3H-pyrrolo[1,2-C]imidazol-3-one derivatives and their use as antibacterial agents” (priority 2014, dated 2018):
Values after ≈ are worked out from the molar mass of the structure shown. Counter-ions that a name gives are not always drawn. Like-named read-outs stand apart in the source and are kept apart here.

Experiments:
Experiment in all cases: Bacterial growth minimal inhibitory concentration (microdilution, cation-adjusted Mueller-Hinton Broth)
Type in all cases: cell-based
E. coli ATCC25922 = conditions: for MIC: Escherichia coli
Procedure: (§1) Minimal Inhibitory Concentrations (MICs; mg/L) were determined in cation-adjusted Mueller-Hinton Broth by a microdilution method following the description given in “Methods for Dilution Antimicrobial Susceptibility Tests for Bacteria that Grow Aerobically”, Approved standard, 7th ed., a Clinical and Laboratory Standards Institute (CLSI) Document M7-A7, Wayne, Pa., USA (2006).
(§2) All Example compounds were tested against several Gram-positive and Gram-negative bacteria. […] K. pneumoniae A-651 is a multiply-resistant strain (in particular quinolone-resistant), while E. coli ATCC25922 and P. aeruginosa ATCC27853 are quinolone-sensitive strains.

P. aeruginosa ATCC27853 = conditions: for MIC: Pseudomonas aeruginosa
Procedure: as §1, §2

K. pneumoniae A-651 = conditions: for MIC: Klebsiella pneumoniae
Procedure: as §1, §2

[1] = ATCC25922, quinolone-sensitive strain, read-out: MIC for E. coli ATCC25922
[2] = ATCC27853, quinolone-sensitive strain, read-out: MIC for P. aeruginosa ATCC27853
[3] = A651, multiply-resistant strain (in particular quinolone-resistant), read-out: MIC for K. Pneumoniae A-651

| Compound | MIC (E. coli ATCC25922; [1]) [µg/mL] | MIC (P. aeruginosa ATCC27853; [2]) [µg/mL] | MIC (K. pneumoniae A-651; [3]) [µg/mL] | also measured |
| --- | --- | --- | --- | --- |
| C[C@@](CCN1Cc2cc(C#Cc3ccc(COC(N)=O)cc3)cn2C1=O)(C(=O)NO)S(C)(=O)=O [Example 32, (R)-4-((2-(4-(hydroxyamino)-3-methyl-3-(methylsulfonyl)-4-oxobutyl)-3-oxo-2,3-dihydro-1H-pyrrolo[1,2-c]imidazol-6-yl)ethynyl)benzyl carbamate] | ≤ 0.063 | 0.5 (≈ 1.02 µM) | 0.25 (≈ 0.512 µM) |  |
| C[C@@](CCN1Cc2cc(C#CC#C[C@@H]3C[C@@H](O)[C@@H](O)C3)cn2C1=O)(C(=O)NO)S(C)(=O)=O [Example 33, (R)-4-(6-(((1S,3R,4S)-3,4-dihydroxycyclopentyl)buta-1,3-diyn-1-yl)-3-oxo-1H-pyrrolo[1,2-c]imidazol-2(3H)-yl)-N-hydroxy-2-methyl-2-(methylsulfonyl)butanamide] |  |  |  | MIC for E. coli ATCC25922 (E. coli ATCC25922; quinolone-sensitive strain): 0.5 µg/mL; MIC for P. aeruginosa ATCC27853 (P. aeruginosa ATCC27853; quinolone-sensitive strain): 1 µg/mL; MIC for K. Pneumoniae A-651 (K. pneumoniae A-651; multiply-resistant strain (in particular quinolone-resistant)): 0.5 µg/mL |
| C[C@@](CCN1Cc2cc(C#Cc3ccc(C4(COC(N)=O)CC4)cc3)cn2C1=O)(C(=O)NO)S(C)(=O)=O [Example 34, (R)-(1-(4-((2-(4-(hydroxyamino)-3-methyl-3-(methylsulfonyl)-4-oxobutyl)-3-oxo-2,3-dihydro-1H-pyrrolo[1,2-c]imidazol-6-yl)ethynyl)phenyl)cyclopropyl)methyl carbamate] | 0.125 (≈ 0.236 µM) | 16 (≈ 30.3 µM) | 1 (≈ 1.89 µM) |  |
| C[C@@](CCN1Cc2cc(C#CC#CC3(COC(N)=O)CC3)cn2C1=O)(C(=O)NO)S(C)(=O)=O [Example 35, (R)-(1-((2-(4-(hydroxyamino)-3-methyl-3-(methylsulfonyl)-4-oxobutyl)-3-oxo-2,3-dihydro-1H-pyrrolo[1,2-c]imidazol-6-yl)buta-1,3-diyn-1-yl)cyclopropyl)methyl carbamate] | 0.25 (≈ 0.525 µM) | 2 (≈ 4.2 µM) | 0.5 (≈ 1.05 µM) |  |
| C[C@@]1(C#CC#Cc2cc3n(c2)C(=O)N(CC[C@](C)(C(=O)NO)S(C)(=O)=O)C3)C[C@H]1CO [Example 36, (R)-N-hydroxy-4-(6-(((1R,2R)-2-(hydroxymethyl)-1-methylcyclopropyl)buta-1,3-diyn-1-yl)-3-oxo-1H-pyrrolo[1,2-c]imidazol-2(3H)-yl)-2-methyl-2-(methylsulfonyl)butanamide] | 0.125 (≈ 0.279 µM) | 0.5 (≈ 1.12 µM) | 0.25 (≈ 0.559 µM) |  |
| C[C@@](CCN1Cc2cc(C#CC#CC3(N)CC3)cn2C1=O)(C(=O)NO)S(C)(=O)=O.Cl [Example 38, (R)-4-(6-((1-aminocyclopropyl)buta-1,3-diyn-1-yl)-3-oxo-1H-pyrrolo[1,2-c]imidazol-2(3H)-yl)-N-hydroxy-2-methyl-2-(methylsulfonyl)butanamide hydrochloride] | 0.25 | 1 | 0.25 |  |
| C[C@@](CCN1Cc2cc(C#CC#CC3(N)COC3)cn2C1=O)(C(=O)NO)S(C)(=O)=O [Example 39, (R)-4-(6-((3-aminooxetan-3-yl)buta-1,3-diyn-1-yl)-3-oxo-1H-pyrrolo[1,2-c]imidazol-2(3H)-yl)-N-hydroxy-2-methyl-2-(methylsulfonyl)butanamide hydrochloride] |  |  |  | MIC (E. coli ATCC25922; ATCC25922, read-out: MIC for E. coli ATCC25922): 2 µg/mL; MIC (P. aeruginosa ATCC27853; ATCC27853, read-out: MIC for P. aeruginosa ATCC27853): 4 µg/mL; MIC (K. pneumoniae A-651; A651, read-out: MIC for K. Pneumoniae A-651): 4 µg/mL |
| C[C@@](CCN1Cc2cc(C#Cc3ccc(C4(CO)CCC4)cc3)cn2C1=O)(C(=O)NO)S(C)(=O)=O [Example 40, (R)-N-hydroxy-4-(6-((4-(1-(hydroxymethyl)cyclobutyl)phenyl)ethynyl)-3-oxo-1H-pyrrolo[1,2-c]imidazol-2(3H)-yl)-2-methyl-2-(methylsulfonyl)butanamide] | ≤ 0.063 | 1 (≈ 2 µM) | 0.25 (≈ 0.5 µM) |  |
| C[C@@](CCN1Cc2cc(-c3ccc(OCCO)cc3F)cn2C1=O)(C(=O)NO)S(C)(=O)=O [Example 41, (R)-4-(6-(2-fluoro-4-(2-hydroxyethoxy)phenyl)-3-oxo-1H-pyrrolo[1,2-c]imidazol-2(3H)-yl)-N-hydroxy-2-methyl-2-(methylsulfonyl)butanamide] | 1 (≈ 2.13 µM) | 4 (≈ 8.52 µM) | 2 (≈ 4.26 µM) |  |
| C[C@@](CCN1Cc2cc(C#CC#CC3[C@@H](CO)[C@H]3CO)cn2C1=O)(C(=O)NO)S(C)(=O)=O (stereo partly drawn) [Example 42, (R)-4-(6-(((2R,3S)-2,3-bis(hydroxymethyl)cyclopropyl)buta-1,3-diyn-1-yl)-3-oxo-1H-pyrrolo[1,2-c]imidazol-2(3H)-yl)-N-hydroxy-2-methyl-2-(methylsulfonyl)butanamide] | 8 (≈ 17.3 µM) | 4 (≈ 8.63 µM) | 8 (≈ 17.3 µM) |  |
| C[C@@](CCN1Cc2cc(-c3ccc(OC[C@H](O)CO)cc3F)cn2C1=O)(C(=O)NO)S(C)(=O)=O [Example 43, (R)-4-(6-(4-((R)-2,3-dihydroxypropoxy)-2-fluorophenyl)-3-oxo-1H-pyrrolo[1,2-c]imidazol-2(3H)-yl)-N-hydroxy-2-methyl-2-(methylsulfonyl)butanamide] | 8 (≈ 16 µM) | 8 (≈ 16 µM) | 16 (≈ 32 µM) |  |
| C[C@@](CCN1Cc2cc(C#Cc3ccc(C(F)(F)CO)cc3)cn2C1=O)(C(=O)NO)S(C)(=O)=O [Example 44, (R)-4-(6-((4-(1,1-difluoro-2-hydroxyethyl)phenyl)ethynyl)-3-oxo-1H-pyrrolo[1,2-c]imidazol-2(3H)-yl)-N-hydroxy-2-methyl-2-(methylsulfonyl)butanamide] | ≤ 0.063 | 1 (≈ 2.02 µM) | 0.25 (≈ 0.505 µM) |  |
| C[C@@](CCN1Cc2cc(C#Cc3ccc(C(=O)CO)cc3)cn2C1=O)(C(=O)NO)S(C)(=O)=O [Example 45, (R)-N-hydroxy-4-(6-((4-(2-hydroxyacetyl)phenyl)ethynyl)-3-oxo-1H-pyrrolo[1,2-c]imidazol-2(3H)-yl)-2-methyl-2-(methylsulfonyl)butanamide] | 0.25 (≈ 0.528 µM) | 4 (≈ 8.45 µM) | 1 (≈ 2.11 µM) |  |
| CN(C)CC#CC#Cc1cc2n(c1)C(=O)N(CC[C@](C)(C(=O)NO)S(C)(=O)=O)C2 [Example 46, (R)-4-(6-(5-(dimethylamino)penta-1,3-diyn-1-yl)-3-oxo-1H-pyrrolo[1,2-c]imidazol-2(3H)-yl)-N-hydroxy-2-methyl-2-(methylsulfonyl)butanamide] | 1 (≈ 2.38 µM) | 4 (≈ 9.51 µM) | 2 (≈ 4.76 µM) |  |
| COC(=O)c1ccc(-c2cc3n(c2)C(=O)N(CC[C@](C)(C(=O)NO)S(C)(=O)=O)C3)c(F)c1 [Example 47, methyl (R)-3-fluoro-4-(2-(4-(hydroxyamino)-3-methyl-3-(methylsulfonyl)-4-oxobutyl)-3-oxo-2,3-dihydro-1H-pyrrolo[1,2-c]imidazol-6-yl)benzoate] | ≤ 0.063 | 8 (≈ 17.1 µM) | 0.25 (≈ 0.535 µM) |  |
| C[C@@](CCN1Cc2cc(-c3ccc(Cl)cc3F)cn2C1=O)(C(=O)NO)S(C)(=O)=O [Example 48, (R)-4-(6-(4-chloro-2-fluorophenyl)-3-oxo-1H-pyrrolo[1,2-c]imidazol-2(3H)-yl)-N-hydroxy-2-methyl-2-(methylsulfonyl)butanamide] | ≤ 0.063 | 1 (≈ 2.25 µM) | 0.25 (≈ 0.563 µM) |  |
| CCOc1ccc(-c2cc3n(c2)C(=O)N(CC[C@](C)(C(=O)NO)S(C)(=O)=O)C3)c(Cl)c1 [Example 49, (R)-4-(6-(2-chloro-4-ethoxyphenyl)-3-oxo-1H-pyrrolo[1,2-c]imidazol-2(3H)-yl)-N-hydroxy-2-methyl-2-(methylsulfonyl)butanamide] | ≤ 0.063 | 4 (≈ 8.51 µM) | 0.125 (≈ 0.266 µM) |  |
